Experimental data taken from US8709811B2, “Materials and methods for synthesis of a flavor and aroma volatile in plants” (University of Florida Research Foundation, Inc., priority 2003, dated 2014).
“Also recorded” adds a separate entry of the source.

How the values were obtained:
[1] = concentration X humans' ability to detect; cited from earlier work
[2] = trained expert panel; cited from earlier work
[3] = molecular target: LePEDH (tomato 2-phenylethanol dehydrogenase, full-length cLET2M9) (Solanum lycopersicum, UniProt A6N6K7); assay: Alcohol dehydrogenase activity of E. coli expressed His-tagged LePEDH on phenylacetaldehyde and related substrates (Km); format: biochemical; settings: His tag
Chain of LePEDH (tomato 2-phenylethanol dehydrogenase, full-length cLET2M9) (A6N6K7 entry or part of it): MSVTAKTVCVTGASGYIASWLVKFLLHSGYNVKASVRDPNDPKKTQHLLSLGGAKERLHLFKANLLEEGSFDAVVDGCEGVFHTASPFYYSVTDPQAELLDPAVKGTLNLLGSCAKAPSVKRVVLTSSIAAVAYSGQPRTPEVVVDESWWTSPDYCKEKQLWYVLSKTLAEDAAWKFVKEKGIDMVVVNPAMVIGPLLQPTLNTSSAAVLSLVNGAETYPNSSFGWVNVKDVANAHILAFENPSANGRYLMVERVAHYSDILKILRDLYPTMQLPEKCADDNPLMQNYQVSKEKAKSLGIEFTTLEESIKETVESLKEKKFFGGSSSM
Method: The 2-phenylethanol dehydrogenase coding region of the full-length cLET2M9 was cloned in vector pDEST17 with a His tag and transformed into E. coli BL21-AI cells for inducible expression. Alcohol dehydrogenase activities on phenylacetaldehyde and several related substrates were determined.

[4] = system: 2-phenylethanol dehydrogenase (full-length cLET2M9); format: biochemical, tomato; settings: GST-tagged enzyme, decrease in OD340
Method: A full-length 2-phenylethanol dehydrogenase cDNA was cloned by 5′ RACE from tomato fruit cDNA using primer 5′-[…]-3′ (SEQ ID NO: 3). Following sequence analysis the full-length cDNA was obtained by PCR. The coding region was cloned into vector pDEST15 containing a GST tag (Invitrogen) by recombination, and transformed into E. coli strain BL21-SI (Invitrogen) for inducible protein expression. Enzyme activity of crude E. coli extracts was determined by the method of Larroy et al. (2002) using phenylacetaldehyde, cinnamaldehyde or vanillin as a substrate.
The 2-phenylethanol dehydrogenase coding region of the full-length cLET2M9 and the related cLEG71F12 were cloned in vector pDEST15 with a GST tag and transformed into E. coli BL21-SI cells for inducible expression. The production of recombinant protein in E. coli was determined by Western blotting with an anti-GST antibody.

| Structure (SMILES) | Log odor units [1] | Odor Characteristics [2] | Alcohol dehydrogenase activity level as substrate [3] | Alcohol dehydrogenase activity level as substrate [4] |
| --- | --- | --- | --- | --- |
| C=CC(=O)CC [1-Penten-3-one] | 2.7 | fruity; also recorded: floral/green | – | – |
| O=[N+]([O-])CCc1ccccc1 [1-nitro-2-Phenylethane] | 0.9 | musty, earthy | – | – |
| CC(C)Cc1nccs1 [2-Isobutylthiazole] | 1.0 | Tomato vine | – | – |
| OCCc1ccccc1 [2-Phenylethanol] | 0.3 | Nutty | – | – |
| CC(C)CCO [3-Methylbutanol] | 0.2 | earthy, musty | – | – |
| CC(=O)CCC=C(C)C [6-Methyl-5-hepten-2-one] | 0.4 | fruity, floral | – | – |
| O=Cc1ccccc1 [Benzaldehyde] | – | – | Lower activity levels | – |
| O=C/C=C/c1ccccc1 [Cinnamaldehyde] | – | – | Lower activity levels | Lower activity levels |
| CCCCCC=O [Hexanal] | 2.8 | green/grassy | – | – |
| COC(=O)c1ccccc1O [Methyl salicylate] | 0.08 | wintergreen | – | – |
| O=CCc1ccccc1 [Phenylacetaldehyde] | 0.6 | floral/alcohol | highest level of activity | highest level of activity; also recorded: Highest activity levels |
| CC/C=C\CC=O [cis-3-Hexenal] | 3.7 | Tomato/green | – | – |
| O=Cc1ccccc1O [salicylaldehyde] | – | – | no detectable activity | – |
| CCCC/C=C/C=O [trans-2-Heptenal] | 0.7 | Green | – | – |
| CCC/C=C/C=O [trans-2-Hexenal] | 1.2 | Green | – | – |
| COc1cc(C=O)ccc1O [vanillin] | – | – | – | negligible activity |
| C/C=C/C(=O)C1=C(C)C=CCC1(C)C [β-Damascenone] | 2.7 | Fruity | – | – |
| CC(=O)/C=C/C1=C(C)CCCC1(C)C [β-ionone] | 2.8 | fruity/floral | – | – |
